Measured values from US12673054B2, “Substituted nucleoside analogs as PRMT5 inhibitors” (Lupin Limited, priority 2019, dated 2026).
Like-named read-outs stand apart in the source and are kept apart here.

Tests used:
[1] = tested on: Z-138 cells; assay: Anticancer activity assay (cell viability, CellTiterGlo); type: cell-based; details: Homo sapiens, cell line not given, read-out: IC50 (inhibition of cell viability), activity range
Procedure: (§1) Z-138 cells were seeded at a density of 2000-3000 cells per well in culture media (IMDM+10% FBS). PANC-1 (ATCC, CRL-1469™) and MIA PaCa-2 (ATCC, CRL-1420™) cells were seeded at a density of 200-300 cells per well in culture media (DMEM+10% FBS). Cells were seeded in opaque, flat bottomed tissue culture grade 96-well plates and Z-138 cells (suspension) were seeded and treated on the same day with various concentrations of test compounds. PANC-1 and MIA PaCa-2 cells, being adherent, were kept for overnight settlement at standard cell culture conditions (37° C., 5% CO2). On the following day, cells were treated with various concentrations of test compounds. Cells were treated with test compounds for a period of 96 h, 7 days and 10 days, for Z-138 cells, PANC-1 cells and MIA PaCa-2 cells, respectively. Cell viability was assessed using CellTiterGlo™ (Promega, USA) as per manufacturer's instructions. Relative Light Units (RLU) were read in Synergy™ 2 reader (Biotek, USA). The assay measures cellular ATP as an indicator of cell viability. RLU is proportional to the number of viable cells in the respective well.
(§2) % inhibition of cell viability was calculated relative to the vehicle control samples containing media with 0.1% DMSO alone as per the formula below. (Avg. of Untreated Control−Avg. of Test)×100 • Avg. of Untreated control
(§3) The IC50 values of individual compounds were calculated with Non Linear Regression Analysis using Graph Pad Prism (Graph Pad software, Inc, USA).

[2] = target: PRMT5:MEP50 (Homo sapiens, UniProt O14744); assay: Biochemical assay, HTRF detection, inhibitory effect on PRMT5; details: biotinylated H4R3 substrate, 1 μM SAM; protocol 1 or 2 not given; read-out: IC50 (PRMT5 inhibition), activity range
Procedure: (§4) Inhibitory effect of compounds on PRMT5 was assessed using HTRF detection technology in biochemical assay. Biotinylated H4R3 (residues 1-21) was used as a substrate. Compounds were pre-incubated with 15-25 ng PRMT5:MEP50 per well of a 384-well plate for 30 min at room temperature in the assay buffer containing 20 mM Bicine, pH 7.6, 25 mM NaCl, 2 mM DTT, 0.01% Chicken albumin and 0.01% Tween-20. Reaction was initiated by adding 1 μM of SAM and 50 nM biotinylated H4R3. Total assay volume was 15 μL. Reaction was continued for 120 min at room temperature. Then detection solution containing Streptavidin-Eu cryptate, anti-rabbit IgG-XL-665, Histone H4R3 Dimethyl Symmetric (H4R3me2s) Polyclonal Antibody, all prepared in HTRF detection buffer was added and further incubated for 30 min at room temperature. HTRF signal was recorded in PHERAStar microplate reader. Ratio of signal obtained at 665 nm and 620 nm was used to compute the percent inhibition of compound as follows % Inhibition=100−((Test Ratio−Negative control Ratio)/(Positive control Ratio−Negative control Ratio)*100) where Positive control=PRMT5+SAM+H4R3 Negative control=PRMT5+H4R3
as §4, with “2.5” for “15-25”, “4 h” for “120 min”

[3] = tested on: MIA PaCa-2 cells; assay: Anti-Cancer Assay (MIA PaCa-2); type: cell-based; details: Homo sapiens, 240 h, 10 days, read-out: IC50 (inhibition of cell viability), activity range
Procedure: as §1, §2, §3

[4] = tested on: SDMA; assay: SDMA inhibition assay; type: cell-based; details: Homo sapiens, Z-138 cells, 48 h
Procedure: Z-138 cells (ATCC, CRL-3001™) were seeded at a density of 1 million cells/well in transparent, flat bottomed tissue culture grade 48-well plates. Cells were treated with various concentration of test compounds for a period of 48 h. Cell lysate was prepared using 1×CST Lysis buffer (Cell Signaling Technology, USA) and 500 ng/well/50 μL of lysate in pH 9.6 carbonate buffer was coated on 96-well Maxisorb plate and incubated overnight at 4° C. The plate was washed twice in 1×PBS containing 0.05% Tween 20 and blocked in 1% BSA for 1 h at ambient temperature. Further, the plate was incubated first with primary antibody (anti-SDMA antibody; CST #13222s) at ambient temperature for 2 h and then with HRP-conjugated secondary antibody at ambient temperature for 1 h with 2 intermittent washing steps in between.
For luminescence based detection, HRP substrates (substrate A+ substrate B in a 1:1 proportion) were added followed by luminescence reading after 30 min in Synergy™ 2 reader (Biotek, USA).
For absorbance based detection, TMB substrate was added followed by addition of STOP solution (2N H2SO4) post colour development and absorbance (excitation 450 nm and emission 540 nm) was measured in Synergy™ 2 reader (Biotek, USA).
% inhibition of SDMA was calculated relative to the vehicle control samples containing media with 0.1% DMSO alone as per the formula below. (Avg. of Untreated Control−Avg. of Test)×100 • Avg. of Untreated control
as §3

[5] = tested on: MIA PaCa-2 xenograft; assay: Subchronic MIA PaCa-2 xenograft model, tumor growth inhibition; type: in vivo, Mus musculus; details: 2 mg/kg dose, female athymic nude mice
Procedure: Tumor size was measured with Digimatic Vernier caliper (Mitutoyo, Japan) when the tumors became palpable. Tumor volume (T. V.) is calculated by using the formula: Tumor volume (mm3)=(L×W2)/2
Where, L: Length of tumor, W: Width of tumor in millimeter Percent tumor growth inhibition (% TGI) is calculated using the formula: % TGI=[1−(Tf−Ti)/(Cf−Ci)]×100
Where, Tf and Ti, are the final and initial tumor volumes (test compound), and Cf and Ci are the final and initial mean tumor volumes (vehicle group), respectively.
Tumor fragment xenograft for pancreatic cancer cell line MIA PaCa-2 was established by implantation of tumor fragments 30-45 mm^3 subcutaneously into the right flank of female athymic nude FOXn1/J/Mus musculus mice with an age between 10-11 weeks purchased from the Jackson Laboratory, USA. All animal study proposals were reviewed and approved by the Institutional Animal Ethics Committee (IAEC) prior to initiation of experimentation.

[6] = range given with mixed units (pM to nM)
[7] = read-out: IC50 (SDMA inhibition), activity range

Chain of PRMT5:MEP50 (O14744 whole entry, the tested form may be a part): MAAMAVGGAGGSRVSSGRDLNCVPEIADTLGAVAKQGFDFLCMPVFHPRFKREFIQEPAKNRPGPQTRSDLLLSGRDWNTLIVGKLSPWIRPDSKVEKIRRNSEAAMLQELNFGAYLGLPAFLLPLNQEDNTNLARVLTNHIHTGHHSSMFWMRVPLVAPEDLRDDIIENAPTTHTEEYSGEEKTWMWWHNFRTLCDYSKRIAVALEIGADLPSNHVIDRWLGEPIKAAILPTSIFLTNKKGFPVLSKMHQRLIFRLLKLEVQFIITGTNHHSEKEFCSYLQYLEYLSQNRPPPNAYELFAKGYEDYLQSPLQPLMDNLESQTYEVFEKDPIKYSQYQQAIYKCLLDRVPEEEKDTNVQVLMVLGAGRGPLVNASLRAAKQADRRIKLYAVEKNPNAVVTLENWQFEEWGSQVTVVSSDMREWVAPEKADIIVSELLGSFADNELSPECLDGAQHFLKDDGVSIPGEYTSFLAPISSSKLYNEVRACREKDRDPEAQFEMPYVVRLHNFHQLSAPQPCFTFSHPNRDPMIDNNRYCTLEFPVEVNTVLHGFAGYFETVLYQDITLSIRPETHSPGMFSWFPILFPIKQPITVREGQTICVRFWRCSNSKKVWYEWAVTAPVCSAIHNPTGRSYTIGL
Chain of PRMT5:MEP50 (Q9BQA1 whole entry partner, the tested form may be a part): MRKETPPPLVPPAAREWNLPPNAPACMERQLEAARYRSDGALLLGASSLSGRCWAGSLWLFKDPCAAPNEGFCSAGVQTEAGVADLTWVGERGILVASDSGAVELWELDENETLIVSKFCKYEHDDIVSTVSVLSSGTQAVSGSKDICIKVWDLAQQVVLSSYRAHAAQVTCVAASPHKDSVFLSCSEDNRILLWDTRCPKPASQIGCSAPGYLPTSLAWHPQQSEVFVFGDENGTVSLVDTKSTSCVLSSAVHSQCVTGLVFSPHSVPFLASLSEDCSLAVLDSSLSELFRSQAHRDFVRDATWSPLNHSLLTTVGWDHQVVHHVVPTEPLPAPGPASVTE

IC50 [1] [nM] | IC50 [2] [nM] | IC50 [3, 6] [pM] | IC50 [4, 7] [pM] | IC50 [4, 6] [pM] | IC50 [3] [pM] | SMILES | % of tumor growth inhibition [5] [%]
> 1 | > 0.75 |  |  |  |  | Cc1nc(N)c2ccn([C@@H]3C=C(CCc4cc(C(F)F)cc5c4CNCC5)[C@@H](O)[C@H]3O)c2n1 [Example 6, (1S,2R,5R)-5-(4-Amino-2-methyl-7H-pyrrolo[2,3-d]pyrimidin-7-yl)-3-(2-(6-(difluoromethyl)-1,2,3,4-tetrahydroisoquinolin-8-yl)ethyl)cyclopent-3-ene-1,2-diol] | 
 | 0.4 to 0.75 |  |  | 100 to 1000 | 1 to 400 | Cc1nc(N)c2ccn([C@@H]3C=C(CCc4cc(F)c5cc(Cl)c(N)nc5c4)[C@@H](O)[C@H]3O)c2n1 [Example 7, (1S,2R,5R)-5-(4-Amino-2-methyl-7H-pyrrolo[2,3-d]pyrimidin-7-yl)-3-(2-(2-amino-3-chloro-5-fluoroquinolin-7-yl)ethyl)cyclopent-3-ene-1,2-diol] | 
> 1 | 0.4 to 0.75 |  | 1100 to 50000 |  |  | Cc1nc(N)nc2c1ccn2[C@@H]1C=C(CCc2cc(C(F)F)c(F)c3c2CNCC3)[C@@H](O)[C@H]1O [Example 8, (1S,2R,5R)-5-(2-Amino-4-methyl-7H-pyrrolo[2,3-d]pyrimidin-7-yl)-3-(2-(6-(difluoromethyl)-5-fluoro-1,2,3,4-tetrahydroisoquinolin-8-yl)ethyl)cyclopent-3-ene-1,2-diol] | 

The remaining lines, values behind:

SMILES | IC50 [1] [nM] | IC50 [2] [nM] | IC50 [3, 6] [pM] | IC50 [4, 7] [pM] | IC50 [4, 6] [pM] | IC50 [3] [pM] | % of tumor growth inhibition [5] [%]
Cc1nc(N)c2ccn([C@@H]3C=C(COc4cc(F)c5cc(Cl)c(N)nc5c4)[C@@H](O)[C@H]3O)c2n1 [Example 3, (1S,2R,5R)-5-(4-Amino-2-methyl-7H-pyrrolo[2,3-d]pyrimidin-7-yl)-3-(((2-amino-3-chloro-5-fluoroquinolin-7-yl)oxy)methyl)cyclopent-3-ene-1,2-diol] |  | 0.4 to 0.75 | 401 to 30000 | 1100 to 50000 |  |  | 
Cc1nc(N)nc2c1cnn2[C@@H]1C=C(CCc2cc(F)c3cc(Cl)c(N)nc3c2)[C@@H](O)[C@H]1O [Example 4, (1S,2R,5R)-3-(2-(2-Amino-3-chloro-5-fluoroquinolin-7-yl)ethyl)-5-(6-amino-4-methyl-1H-pyrazolo[3,4-d]pyrimidin-1-yl)cyclopent-3-ene-1,2-diol] |  | 0.4 to 0.75 | 401 to 30000 |  | 100 to 1000 |  | 
Cc1nc(N)nc2c1ccn2[C@@H]1C=C(CCc2cc(F)c3cc(Cl)c(N)nc3c2)[C@@H](O)[C@H]1O [Example 1, (1S,2R,5R)-3-(2-(2-Amino-3-chloro-5-fluoroquinolin-7-yl)ethyl)-5-(2-amino-4-methyl-7H-pyrrolo[2,3-d]pyrimidin-7-yl)cyclopent-3-ene-1,2-diol] |  | 0.4 to 0.75 |  |  | 100 to 1000 | 1 to 400 | 57
Cc1nc(N)nc2c1ccn2[C@@H]1C=C(COc2cc(F)c3cc(Cl)c(N)nc3c2)[C@@H](O)[C@H]1O [Example 2, (1S,2R,5R)-3-(((2-Amino-3-chloro-5-fluoroquinolin-7-yl)oxy)methyl)-5-(2-amino-4-methyl-7H-pyrrolo[2,3-d]pyrimidin-7-yl)cyclopent-3-ene-1,2-diol] |  | 0.4 to 0.75 | 401 to 30000 | 1100 to 50000 |  |  | 
Cc1nc(N)c2ccn([C@@H]3C=C(COc4cc(C(F)F)cc5c4CNCC5)[C@@H](O)[C@H]3O)c2n1 [Example 5, (1S,2R,5R)-5-(4-Amino-2-methyl-7H-pyrrolo[2,3-d]pyrimidin-7-yl)-3-(((6-(difluoromethyl)-1,2,3,4-tetrahydroisoquinolin-8-yl)oxy)methyl)cyclopent-3-ene-1,2-diol] | > 1 | > 0.75 |  |  |  |  | 
